Assay results published in US20230089247A1, “NOVEL COMPOUNDS SUITABLE FOR THE TREATMENT OF DYSLIPIDEMIA” (ZYDUS LIFESCIENCES LIMITED, priority 2019, published 2023).

Legend:
[1] = target: PCSK9 (Homo sapiens, UniProt Q8NBP7); test: BODIPY-LDL uptake assay in HepG2 cells; format: cell-based; details: 5 μg/ml PCSK9, BODIPY-LDL
Method in brief: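 Compounds pre-incubated 60 min with 5 μg/ml PCSK9 (0.2% DMSO), then added to HepG2 cells for 16 h; 1 μg/ml BODIPY-LDL added in serum-free medium for 5 h. Fluorescence (Ex 485/Em 520 nm) normalized to protein; PCSK9-only wells = 0%, no-PCSK9 wells = 100% uptake, giving percent increase in LDL uptake.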

[2] = test system: High Fat Diet C57 Mice; test: LDL-C lowering activity in high fat diet C57 mice; format: in vivo; details: Mus musculus, po, 168 h; C57 mice on high fat diet; 30 mg/Kg orally once a day, 7 days treatment, blood on day 7; read-out: % Change Vs Vehicle Control in LDLc
Protocol: LDL-C Lowering Activity—in High Fat Diet C57 Mice
The in-vivo LDL-c lowering for test compound was tested in C57 mice which were kept on high fat diet for 4 weeks and the blood was collected by retro-orbital sinus puncture method under light ether anesthesia on day 0 (pretreatment). Animal are grouped based on LDL-c levels, after that 7 days treatment with vehicle or test compound orally at a dose of 30 mpk dose once a day was given. On completion of treatment on day 7 of the treatment the blood was collected for LDL-c and TC levels measurement.

Sequence of PCSK9 (Q8NBP7 153-692): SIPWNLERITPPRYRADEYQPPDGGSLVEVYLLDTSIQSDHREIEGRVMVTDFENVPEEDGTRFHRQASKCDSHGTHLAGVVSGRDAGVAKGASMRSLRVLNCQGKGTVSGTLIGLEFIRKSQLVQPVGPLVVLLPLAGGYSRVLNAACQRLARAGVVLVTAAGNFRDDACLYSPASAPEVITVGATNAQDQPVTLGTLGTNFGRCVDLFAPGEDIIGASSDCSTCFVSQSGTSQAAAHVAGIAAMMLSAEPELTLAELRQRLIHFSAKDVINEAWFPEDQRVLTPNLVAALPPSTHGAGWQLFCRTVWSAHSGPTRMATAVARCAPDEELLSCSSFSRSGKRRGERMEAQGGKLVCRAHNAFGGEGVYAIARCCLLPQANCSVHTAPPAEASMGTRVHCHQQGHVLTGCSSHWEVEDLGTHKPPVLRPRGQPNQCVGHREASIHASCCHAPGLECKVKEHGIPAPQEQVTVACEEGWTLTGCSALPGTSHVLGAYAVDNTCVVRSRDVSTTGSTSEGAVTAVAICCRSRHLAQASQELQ

SMILES	% increase in LDL Uptake ([1]; 1 μM test compound)	% increase in LDL Uptake ([1]; 10 μM test compound)	% increase in LDL Uptake ([1]; 30 μM test compound)	change in vivo at 30 mg/kg [2]
O=C(c1ccc(C2(O)COC2)cc1)N1CC2CC(c3ccc(C(F)(F)F)cc3)CC2C1 (stereo not shown) [Example 10, (4-(3-hydroxyoxetan-3-yl)phenyl)(5-(4-(trifluoromethyl)phenyl)hexahydrocyclopenta[c]pyrrol-2(1H)-yl)methanone]	0%	273%	347%	-15 ± 8%
O=C(c1ccc(C2(O)COC2)cc1)N1CCC(O)(c2ccc(C(F)(F)F)cc2)CC1 [Example 86, (4-hydroxy-4-(4-(trifluoromethyl)phenyl)piperidin-1-yl)(4-(3-hydroxyoxetan-3-yl)phenyl)methanone]	2%	33%	55%	-28 ± 4%
O=C(c1ccc(C2(O)COC2)cc1)N1CC2CC(O)(c3ccc(C(F)(F)F)cc3)CC2C1 (stereo not shown) [Example 105, (5-hydroxy-5-(4-(trifluoromethyl)phenyl)hexahydrocyclopenta[c]pyrrol-2(1H)-yl)(4-(3-hydroxyoxetan-3-yl)phenyl)methanone]	92%	130%	101%	-7 ± 7%
O=C(c1ccc(C2(O)COC2)cc1)N1CC=C(c2ccc(C(F)(F)F)cc2)CC1 [Example 87, (4-(3-hydroxyoxetan-3-yl)phenyl)(4-(4-(trifluoromethyl)phenyl)-5,6-dihydropyridin-1(2H)-yl)methanone]	77%	115%	94%	-36 ± 5%
COC1(c2ccc(C(=O)N3CCCC(c4ccc(C(F)(F)F)cc4)C3)cc2)COC1 (stereo not shown) [Example 39, (4-(3-methoxyoxetan-3-yl)phenyl)(3-(4-(trifluoromethyl)phenyl)piperidin-1-yl)methanone]	26%	149%	147%	-29 ± 5%
O=C(c1ccc(C2(O)COC2)cc1)N1CCCN(c2ccc(C(F)(F)F)cc2)CC1 [Example 184, (4-(3-hydroxyoxetan-3-yl)phenyl)(4-(4-(trifluoromethyl)phenyl)-1,4-diazepan-1-yl)methanone]	19%	117%	250%	-7 ± 7%
COC1(c2ccc(C(=O)N3CCN(c4ccc(C(F)(F)F)cc4)CC3)cc2)COC1 [Example 53, (4-(3-methoxyoxetan-3-yl)phenyl)(4-(4-(trifluoromethyl)phenyl)piperazin-1-yl)methanone]	4%	80%	129%	-15 ± 6%
COC1(c2ccc(C(=O)N3CCC(c4ccc(C(F)(F)F)cc4)CC3)cc2)CCNCC1 [Example 144, (4-(4-methoxypiperidin-4-yl)phenyl)(4-(4-(trifluoromethyl)phenyl)piperidin-1-yl)methanone]	1%	16%	77%	-66 ± 10%
COC1(c2cccc(C(=O)N3CC4CN(c5ccc(C(F)(F)F)cc5)CC4C3)c2)COC1 (stereo not shown) [Example 56, (3-(3-methoxyoxetan-3-yl)phenyl)(5-(4-(trifluoromethyl)phenyl)hexahydropyrrolo[3,4-c]pyrrol-2(1H)-yl)methanone]	55%	344%	257%	-5 ± 8%
COC1(c2ccc(C(=O)N3CC4CN(c5ccc(C(F)(F)F)nc5)CC4C3)cc2)COC1 (stereo not shown) [Example 206, (4-(3-methoxyoxetan-3-yl)phenyl)(5-(6-(trifluoromethyl)pyridin-3-yl)hexahydropyrrolo[3,4-c]pyrrol-2(1H)-yl)methanone]	0%	81%	127%	-18.6 ± 5.7%
CCOC1(c2ccc(C(=O)N3CCC(c4ccc(C(F)(F)F)cc4)CC3)cc2)COC1 [Example 43, (4-(3-ethoxyoxetan-3-yl)phenyl)(4-(4-(trifluoromethyl)phenyl)piperidin-1-yl)methanone]	0%	12%	5%	-27 ± 10%
O=C(c1ccc(C2(O)COC2)cc1)N1CCC(c2ccc(C(F)(F)F)cc2)CC1 [Example 1, (4-(3-hydroxyoxetan-3-yl)phenyl)(4-(4-(trifluoromethyl)phenyl)piperidin-1-yl)methanone]	25%	135%	130%	-52 ± 4%
O=C(c1ccc(C2(O)COC2)cc1)N1CCN(c2ccc(C(F)(F)F)cn2)CC1 [Example 216, (4-(3-hydroxyoxetan-3-yl)phenyl)(4-(5-(trifluoromethyl)pyridin-2-yl)piperazin-1-yl)methanone]	0%	64%	189%	-40 ± 6%
O=C(Nc1cccc(C2(O)COC2)c1)N1CC2CN(c3ccc(C(F)(F)F)cc3)CC2C1 (stereo not shown) [Example 182, N-(3-(3-hydroxyoxetan-3-yl)phenyl)-5-(4-(trifluoromethyl)phenyl) hexahydropyrrolo[3,4-c]pyrrole-2(1H)-carboxamide]	42%	37%	60%	-5 ± 11%
COC1(c2ccc(C(=O)N3CC4CN(c5ccc(C(F)(F)F)cc5)CC4C3)cc2)COC1 (stereo not shown) [Example 57, (4-(3-methoxyoxetan-3-yl)phenyl)(5-(4-(trifluoromethyl)phenyl)hexahydropyrrolo[3,4-c]pyrrol-2(1H)-yl)methanone]	6%	32%	53%	-43 ± 9%
CCOC1(c2ccc(C(=O)N3CC4CN(c5ccc(C(F)(F)F)cc5)CC4C3)cc2)COC1 (stereo not shown) [Example 58, (4-(3-ethoxyoxetan-3-yl)phenyl)(5-(4-(trifluoromethyl)phenyl)hexahydropyrrolo[3,4-c]pyrrol-2 (1H)-yl)methanone]	25%	21%	43%	-44 ± 3%
COC1(c2cccc(C(=O)N3CC4CN(c5ccc(C(F)(F)F)cn5)CC4C3)c2)COC1 (stereo not shown) [Example 208, (3-(3-methoxyoxetan-3-yl)phenyl)(5-(5-(trifluoromethyl)pyridin-2-yl)hexahydropyrrolo[3,4-c]pyrrol-2 (1H)-yl)methanone]	56%	14%	189%	
COC1(c2ccc(C(=O)N3CCC(c4ccc(C(F)(F)F)c(-n5cnc(C)c5)c4)CC3)cc2)COC1 [Example 108, (4-(3-methoxyoxetan-3-yl)phenyl)(4-(3-(4-methyl-1H-imidazol-1-yl)-4-(trifluoromethyl)phenyl)piperidin-1-yl)methanone]	9%	26%	32%	
COC(=O)c1ccc(C2(O)CC3CN(C(=O)c4ccc(C5(O)COC5)cc4)CC3C2)cc1 (stereo not shown) [Example 198, Methyl 4-(5-hydroxy-2-(4-(3-hydroxyoxetan-3-yl)benzoyl)octahydrocyclopenta[c]pyrrol-5-yl)benzoate]	−8%	25%	3%	
COC1(c2ccc(C(=O)N3CCC(c4ccc(C(F)(F)F)cc4)CC3)cc2)CCNC1 (stereo not shown) [Example 153, (4-(3-methoxypyrrolidin-3-yl)phenyl)(4-(4-(trifluoromethyl)phenyl)piperidin-1-yl)methanone]	0%	47%	46%	
CCOC1(c2ccc(C(=O)N3CCC(c4ccc(C(F)(F)F)c(F)c4)CC3)cc2)COC1 [Example 42, (4-(3-ethoxyoxetan-3-yl)phenyl)(4-(3-fluoro-4-(trifluoromethyl)phenyl)piperidin-1-yl)methanone]	20%	25%	4%	
O=S(=O)(c1ccc(C2(O)COC2)cc1)N1CCN(c2ccc(C(F)(F)F)cc2)CC1 [Example 7, 3-(4-((4-(4-(trifluoromethyl)phenyl)piperazin-1-yl)sulfonyl)phenyl) oxetan-3-ol]	28%	63%	128%	
COc1cc(C2CN(c3ccc(C(F)(F)F)cc3)CCN2C(=O)c2ccc(C3(O)COC3)cc2)ccn1 (stereo not shown) [Example 67, (4-(3-hydroxyoxetan-3-yl)phenyl)(2-(2-methoxypyridin-4-yl)-4-(4-(trifluoromethyl)phenyl)piperazin-1-yl)methanone]	26%	27%	11%	
N#CC1(c2ccc(C(F)(F)F)cc2)CCN(C(=O)c2ccc(C3(O)COC3)cc2)CC1 [Example 116, 1-(4-(3-hydroxyoxetan-3-yl)benzoyl)-4-(4-(trifluoromethyl)phenyl)piperidine-4-carbonitrile]	7%	35%	98%	
